Assays:
Assay type in all cases: cell-based
[1] = test system: T47D (PI3Kα H1047R mutant) cells; assay: Inhibition of pAKT formation, alphaLISA SureFire Ultra AKT 1/2/3 (pS473), T47D cells; details: Homo sapiens, T47D
Method in brief: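 T47D cells (12,000/well) in HBSS were dosed with compound at 10 concentrations (10.4 μM top, 1:4 dilutions) for about 1 h or 24 h at 37 °C, then lysed. pS473 AKT was read by alphaLISA. Signals were normalized to alpelisib and DMSO controls, and IC50 came from a four-parameter fit.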

[2] = test system: MKN1 (PI3Kα E545K mutant) cells; assay: Inhibition of pAKT formation, alphaLISA SureFire Ultra AKT 1/2/3 (pS473), MKN1 cells; details: Homo sapiens
Procedure: (§1) The ability of a compound of Formula (I) to inhibit the formation of pAKT was measured using alphaLISA Surefire Ultra AKT 1/2/3 (pS473) Assay Kit (#ALSU-PAKT-B50K) was obtained from Perkin Elmer (Waltham, MA).
(§2) To prepare assay plates for pAKT alphaLISA assays, cells were trypsinized, resuspended in fresh media, and viable cells were counted utilizing trypan blue exclusion. Prior to seeding, cells were washed with PBS and resuspended in HBSS (Gibco, #14025092). T47D (12,000/w), SKBR3(12,000/w), or MKN1(24,000/w) cells were seeded at 12 μl per well in a solid white flat bottom 384 cell culture plate (Perkin Elmer #6007680).
(§3) Immediately after seeding, cells were dosed using an Echo Liquid Handler (Beckman Coulter) with compounds at a […] starting concentration and serially diluted (1:4) for a total of 10 concentrations. […] Cells were incubated with the compounds (solubilized in DMSO) for approximately one hour or 24 hours at 37° C. After one hour (or 24 hours) of treatment, cells were lysed with 3 μl of the 5× lysis buffer (provided and incubated at room temperature for 15 min on a microtiter plate shaker). Once cells were sufficiently lysed, 7.5 μl of the acceptor bead mix (made using the manufacturers recommended dilutions) was added to each well and left on the microtiter plate shaker for 1 min prior to incubating plates at room temperature for one hour, in the absence of light. After one hour of incubation with the acceptor bead mix, 7.5 μl of the donor bead mix (made using the manufacturers recommended dilutions) was added to each well and left on the microtiter plate shaker for 1 min prior to incubating plates at room temperature overnight in the absence of light. Plates were then imaged the following day using a CLARIOstar microplate reader (BMG Labtech, Germany).
(§4) Percent of control values were calculated by subtracting the average signal from the positive control (alpelisib) treated wells from all treated wells (including DMSO control wells) and then divided by the average signal from the vehicle DMSO treated control wells. Percent of vehicle control values were plotted as log (inhibitor) vs. response-Variable slope (four parameters) for curve fitting and IC50 values were determined using XLfit.
(§5) Key: N.D. =not determined

[3] = test system: SKBR3 (PI3Kα wild type) cells; assay: Inhibition of pAKT formation, alphaLISA SureFire Ultra AKT 1/2/3 (pS473), SKBR3 cells; details: Homo sapiens, SK-BR-3; Inhibition of pAKT in SKBR3 (PI3Kα wild type) cells; read-out: SKBR3 (WT) pAKT IC50 (nM) (H1047R mutant) IC50
Procedure: as §1, §2, §3, §4, §5

[4] = test system: T47D (PI3Kα H1047R mutant) cells; assay: CellTiter-Glo 2.0 luminescent cell viability assay, 72 hours, T47D cells; details: Homo sapiens, T47D, 72 h
Method in brief: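 Cells seeded at 1000 per well overnight were dosed with a 10-concentration, 1:4 series starting at 10 µM and incubated ~72 h at 37° C. Viability was read by CellTiter-Glo 2.0 luminescence after 30 min at room temperature. IC50 came from four-parameter fits of percent vehicle control.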

[5] = test system: MKN1 (PI3Kα E545K mutant) cells; assay: CellTiter-Glo 2.0 luminescent cell viability assay, 72 hours, MKN1 cells; details: Homo sapiens
Procedure: This Example illustrates that exemplary compounds of the present invention decrease the viability of cells.
The ability of a compound of Formula (I) to decrease the viability of cells was measured using CellTiter-Glo 2.0 (CTG) Luminescent Cell Viability Assay (#G9241) obtained from Promega (Madison, WI).
To prepare assay plates for viability assays, cells were trypsinized, resuspended in fresh media, and viable cells were counted utilizing trypan blue exclusion. T47D, SKBR3, or MKN1 cells were seeded at 1000 cells in 30 μl per well in a solid white flat bottom 384 cell culture plate (Perkin Elmer #6007680) and incubated at 37° C. overnight.
Assay day 1, cells were dosed using an Echo Liquid Handler (Beckman Coulter) with compounds at a 10 um starting concentration and serially diluted (1:4) for a total of 10 concentrations. Cells were incubated for approximately 72 hours with the compounds (solubilized in DMSO) at 37° C. After 72 hours of treatment, cell plates were equilibrated to room temperature before adding 15 μl of CTG to each well, plates were then covered in aluminum foil to protect from light, incubated at room temperature for 30 minutes on a microtiter plate shaker, and luminescence readings were collected using a CLARIOstar microplate reader (BMG Labtech, Germany). Percent of vehicle control values were plotted as log (inhibitor) vs. response-Variable slope (four parameters) for curve fitting and IC50 values were determined using XLfit.

[6] = test system: SKBR3 (PI3Kα wild type) cells; assay: CellTiter-Glo 2.0 luminescent cell viability assay, 72 hours, SKBR3 cells; details: Homo sapiens, SK-BR-3, 72 h
Method in brief: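 Viability measured via CTG luminescence following roughly 72 hours of compound exposure at 37° C. Dosing used a 10 um starting concentration diluted 1:4 over 10 points; percent-of-vehicle data fitted with a variable-slope four-parameter model for IC50.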

[7] = T47D (PI3Kα H1047R mutant) cells, inhibition of pAKT (pS473) formation, approximately one hour or 24 hours treatment, read-out: T47D pAKT (H1047R mutant) IC50
[8] = MKN-1, MKN1 (PI3Kα E545K mutant) cells, inhibition of pAKT (pS473) formation, approximately one hour or 24 hours treatment, read-out: MKN1 (E545K) pAKT IC50
[9] = T47D (PI3Kα H1047R mutant) cells, CellTiter-Glo, approximately 72 hours, read-out: T47D (H1047R mutant) Viability IC50
[10] = MKN-1, MKN1 (PI3Kα E545K mutant) cells, CellTiter-Glo, approximately 72 hours, read-out: MKN1 (E545K) Viability IC50
[11] = SKBR3 (PI3Kα wild type) cells, CellTiter-Glo, approximately 72 hours, read-out: SKBR3 (WT) Viability IC50

| SMILES | IC50 [1, 7] [nM] | IC50 [2, 8] [nM] | IC50 [3] [nM] | IC50 [4, 9] [nM] | IC50 [5, 10] [nM] | IC50 [6, 11] [nM] | IC50 ([1]; read-out: T47D pAKT (H1047R mutant) IC50 (nM)) [nM] | IC50 ([2]; MKN-1, read-out: MKN1 (E545K) pAKT IC50 (nM)) [nM] | IC50 ([4]; read-out: T47D (H1047R mutant) Viability IC50 (nM)) [nM] | IC50 ([5]; MKN-1, 72 h, read-out: MKN1 (E545K) Viability IC50 (nM)) [nM] | IC50 ([6]; read-out: SKBR3 (WT) Viability IC50 (nM)) [nM] |
| --- | --- | --- | --- | --- | --- | --- | --- | --- | --- | --- | --- |
| COc1ccc(NC(C)c2cc(C)cn3c(=O)cc(N4CCCCC4)nc23)c(C(=O)O)c1 (centres unmarked) [Example 3-5, 5-methoxy-2-((1-(7-methyl-4-oxo-2-(piperidin-1-yl)-4H-pyrido[1,2-a]pyrimidin-9-yl)ethyl)amino)benzoic acid] | 1800 | > 10000 | > 10000 | > 10000 | > 10000 | > 10000 |  |  |  |  |  |
| Cc1cc(C(C)Nc2ccc(O)cc2C(=O)O)c2nc(N3CCCCC3)cc(=O)n2c1 (centres unmarked) [Example 3-6, 5-hydroxy-2-((1-(7-methyl-4-oxo-2-(piperidin-1-yl)-4H-pyrido[1,2-a]pyrimidin-9-yl)ethyl)amino)benzoic acid] | > 10000 | > 10000 | 2670 | > 10000 | > 10000 | > 10000 |  |  |  |  |  |
| Cc1cc(C(C)Nc2ccccc2)c2nc(N3CCCCC3)cc(=O)n2c1 (centres unmarked) [Example 1, 7-methyl-9-(1-(phenylamino)ethyl)-2-(piperidin-1-yl)-4H-pyrido[1,2-a]pyrimidin-4-one] | > 10000 | > 10000 | > 10000 | > 10000 | > 10000 | > 10000 |  |  |  |  |  |
| C=CC(=O)NC(C)c1cc(C)cn2c(=O)cc(N3CCCCC3)nc12 (centres unmarked) [Example 4-1, N-(1-(7-methyl-4-oxo-2-(piperidin-1-yl)-4H-pyrido[1,2-a]pyrimidin-9-yl)ethyl)acrylamide] | > 10000 | > 10000 | > 10000 | > 10000 | > 10000 | > 10000 |  |  |  |  |  |
| Cc1cc(C(C)Nc2ccccc2C(=O)O)c2nc(C)cc(=O)n2c1 (centres unmarked) [Example 6-1, 2-((1-(2,7-dimethyl-4-oxo-4H-pyrido[1,2-a]pyrimidin-9-yl)ethyl)amino)benzoic acid] |  |  | > 10000 |  |  |  | 3370 | > 10000 | > 10000 | > 10000 | > 10000 |
| Cc1cc(C(C)Nc2ccccc2C(F)(F)CO)c2nc(N3CCCCC3)cc(=O)n2c1 (centres unmarked) [Example 3-20, 9-(1-((2-(1,1-difluoro-2-hydroxyethyl)phenyl)amino)ethyl)-7-methyl-2-(piperidin-1-yl)-4H-pyrido[1,2-a]pyrimidin-4-one] | 1120 | > 10000 | > 10000 | > 10000 | > 10000 | > 10000 |  |  |  |  |  |
| Cc1cc([C@H](C)Nc2ccccc2C(=O)O)c2nc(N3CCC(C)(C)CC3)c(C)c(=O)n2c1 (single isomer, unassigned) [Example 5-2] | > 10000 | > 10000 | > 10000 | 9030 |  | > 10000 |  |  |  |  |  |
| Cc1cc(C(C)N(C)c2ccccc2C(=O)O)c2nc(N3CCCCC3)cc(=O)n2c1 (centres unmarked) [Example 3-21, 2-(methyl(1-(7-methyl-4-oxo-2-(piperidin-1-yl)-4H-pyrido[1,2-a]pyrimidin-9-yl)ethyl)amino)benzoic acid] | > 10000 | > 10000 |  |  |  |  |  |  |  |  |  |

The next lines start with results.

| IC50 [1, 7] [nM] | IC50 [2, 8] [nM] | IC50 [3] [nM] | IC50 [4, 9] [nM] | IC50 [5, 10] [nM] | IC50 [6, 11] [nM] | SMILES | IC50 ([1]; read-out: T47D pAKT (H1047R mutant) IC50 (nM)) [nM] | IC50 ([2]; MKN-1, read-out: MKN1 (E545K) pAKT IC50 (nM)) [nM] | IC50 ([4]; read-out: T47D (H1047R mutant) Viability IC50 (nM)) [nM] | IC50 ([5]; MKN-1, 72 h, read-out: MKN1 (E545K) Viability IC50 (nM)) [nM] | IC50 ([6]; read-out: SKBR3 (WT) Viability IC50 (nM)) [nM] |
| --- | --- | --- | --- | --- | --- | --- | --- | --- | --- | --- | --- |
| 93.2 | > 10000 | > 10000 | > 10000 | > 10000 | > 10000 | Cc1cc(C(C)Nc2ccccc2C(=O)O)c2nc(C3CC3)cc(=O)n2c1 (centres unmarked) [6-2, 2-((1-(2-cyclopropyl-7-methyl-4-oxo-4H-pyrido[1,2-a]pyrimidin-9-yl)ethyl)amino)benzoic acid] |  |  |  |  |  |
| 2510 | > 10000 | > 10000 | > 10000 |  | > 10000 | Cc1cc(C(C)Sc2ccccc2C(=O)O)c2nc(N3CCCCC3)cc(=O)n2c1 (centres unmarked) [Example 3-10, 2-((1-(7-methyl-4-oxo-2-(piperidin-1-yl)-4H-pyrido[1,2-a]pyrimidin-9-yl)ethyl)thio)benzoic acid] |  |  |  |  |  |
| 1970 | > 10000 | 44.3 | 5760 | > 10000 | > 10000 | COC(=O)c1ccccc1NC(C)c1cc(C)cn2c(=O)cc(N3CCCCC3)nc12 (centres unmarked) [Example 3-12, methyl 2-((1-(7-methyl-4-oxo-2-(piperidin-1-yl)-4H-pyrido[1,2-a]pyrimidin-9-yl)ethyl)amino)benzoate] |  |  |  |  |  |
| 10.9 | 3060 | > 10000 | 731 | > 10000 | > 10000 | Cc1c(N2CCCCC2)nc2c(C(C)Nc3ccccc3C(=O)O)cccn2c1=O (centres unmarked) [Example 5-11, 2-((1-(3-methyl-4-oxo-2-(piperidin-1-yl)-4H-pyrido[1,2-a]pyrimidin-9-yl)ethyl)amino)benzoic acid] |  |  |  |  |  |
| 21.2 | > 10000 | > 10000 | 2580 | > 10000 | > 10000 | Cc1cc(C(C)Nc2ccccc2C(=O)O)c2nc(C3CCOCC3)cc(=O)n2c1 (centres unmarked) [Example 9-1, 2-((1-(7-methyl-4-oxo-2-(tetrahydro-2H-pyran-4-yl)-4H-pyrido[1,2-a]pyrimidin-9-yl)ethyl)amino)benzoic acid] |  |  |  |  |  |
| 70.5 | 3250 | > 10000 | 1640 |  | 799 | Cc1cc(C(C)Nc2ccccc2C(=O)O)c2nc(N3CCC4(CC3)CC4)cc(=O)n2c1 (centres unmarked) [Example 3-22, 2-((1-(7-methyl-4-oxo-2-(6-azaspiro[2.5]octan-6-yl)-4H-pyrido[1,2-a]pyrimidin-9-yl)ethyl)amino)benzoic acid] |  |  |  |  |  |
| 2280 | 8830 | > 10000 |  |  |  | Cc1cc(C(C)Nc2cccc(O)c2C(=O)O)c2nc(N3CCCCC3)cc(=O)n2c1 (centres unmarked) [Example 3-4, 2-hydroxy-6-((1-(7-methyl-4-oxo-2-(piperidin-1-yl)-4H-pyrido[1,2-a]pyrimidin-9-yl)ethyl)amino)benzoic acid] |  |  |  |  |  |
